Key:
Format in all cases: cell-based
αvβ3 = biological target: T1, αvβ3 (Homo sapiens, UniProt P05106+P06756); assay: Cell adhesion assay, K562-αvβ3 (LAP-b1); details: K562-αvβ3 cells, ligand LAP-b1, 2 mM MgCl2
T1 construct: expressed in transfected cells; host or cells: K562
Protocol: (§1) Reagents and methods utilised are as described [Ludbrook et al, Biochem. J. 2003, 369, 311 and Macdonald et al. ACS Med. Chem. Lett. 2014, 5, 1207-1212 for αvβ8 assay), with the following points of clarification. The following cell lines are used, with ligands in brackets: K562-αvβ3 (LAP-b1), K562-αvβ5 (Vitronectin), K562-αvβ6 (LAP-b1), K562-αvβ8 (LAP-b1), A549-αvβ1 (LAP-b1). The divalent cation used to facilitate adhesion is 2 mM MgCl2. Adhesion is quantified by cell labelling with the fluorescent dye BCECF-AM (Life Technologies), where cell suspensions at 3×10^6 cells/mL are incubated with 0.33 uL/mL of 30 mM BCECF-AM at 37° C. for 10 minutes, then 50 μL/well are dispensed into the 96-well assay plate. At the assay conclusion cells that adhered are lysed using 50 μL/well of 0.5% Triton X-100 in H2O to release fluorescence. Fluorescence intensity is detected using an Envision® plate reader (Perkin Elmer). For active antagonists in the assay, data is fitted to a 4 parameter logistic equation for IC50 determinations.

αvβ5 = biological target: T2, αvβ5 (Homo sapiens, UniProt P06756+P18084); assay: Cell adhesion assay, K562-αvβ5 (Vitronectin); details: K562-αvβ5 cells, ligand Vitronectin, 2 mM MgCl2
T2 construct: expressed in transfected cells; host or cells: K562
Protocol: as §1

αvβ1 = biological target: T3, αvβ1 (Homo sapiens, UniProt P05556+P06756); assay: Cell adhesion assay, A549-αvβ1 (LAP-b1); details: A549-αvβ1 cells, ligand LAP-b1, 2 mM MgCl2
T3 construct: host or cells: A549
Protocol: as §1

αvβ8 = biological target: T4, αvβ8 (Homo sapiens, UniProt P06756+P26012); assay: Cell adhesion assay, K562-αvβ8 (LAP-b1); details: K562-αvβ8 cells, ligand LAP-b1, 2 mM MgCl2
T4 construct: expressed in transfected cells; host or cells: K562
Protocol: as §1

αvβ6 = biological target: T5, αvβ6 (Homo sapiens, UniProt P06756+P18564); assay: Cell adhesion assay, K562-αvβ6 (LAP-b1); details: K562-αvβ6 cells, ligand LAP-b1, 2 mM MgCl2
T5 construct: expressed in transfected cells; host or cells: K562
Protocol: as §1

T2 sequence (P06756 31-889 limits assumed): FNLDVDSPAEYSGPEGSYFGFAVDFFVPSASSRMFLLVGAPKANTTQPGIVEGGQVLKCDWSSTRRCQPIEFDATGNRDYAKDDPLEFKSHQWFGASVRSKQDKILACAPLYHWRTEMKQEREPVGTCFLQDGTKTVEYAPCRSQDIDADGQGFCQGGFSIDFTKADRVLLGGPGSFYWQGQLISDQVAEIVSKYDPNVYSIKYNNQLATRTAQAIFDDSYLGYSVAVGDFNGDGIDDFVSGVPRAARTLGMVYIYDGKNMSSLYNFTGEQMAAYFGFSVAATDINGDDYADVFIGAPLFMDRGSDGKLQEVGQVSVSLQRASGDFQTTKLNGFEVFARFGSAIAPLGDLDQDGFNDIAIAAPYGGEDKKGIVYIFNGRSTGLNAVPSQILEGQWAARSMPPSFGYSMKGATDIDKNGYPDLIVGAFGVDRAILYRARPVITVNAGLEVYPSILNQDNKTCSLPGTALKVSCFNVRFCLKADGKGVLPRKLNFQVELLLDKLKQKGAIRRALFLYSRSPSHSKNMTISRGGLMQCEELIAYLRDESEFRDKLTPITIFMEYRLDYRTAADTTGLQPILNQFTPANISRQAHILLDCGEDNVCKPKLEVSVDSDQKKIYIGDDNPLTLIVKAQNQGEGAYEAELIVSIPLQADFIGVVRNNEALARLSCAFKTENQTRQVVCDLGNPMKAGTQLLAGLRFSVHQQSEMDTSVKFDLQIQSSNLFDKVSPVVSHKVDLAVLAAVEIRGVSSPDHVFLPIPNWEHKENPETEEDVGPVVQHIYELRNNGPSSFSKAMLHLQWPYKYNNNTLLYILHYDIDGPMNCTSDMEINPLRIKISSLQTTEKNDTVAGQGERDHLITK
T2 sequence (P06756 891-1048 partner limits assumed): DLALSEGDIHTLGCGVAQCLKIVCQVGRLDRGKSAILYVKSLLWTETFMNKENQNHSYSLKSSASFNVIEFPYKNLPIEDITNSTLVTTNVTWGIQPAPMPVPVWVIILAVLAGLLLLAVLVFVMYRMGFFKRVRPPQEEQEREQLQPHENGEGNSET
T2 sequence (P18084 24-799): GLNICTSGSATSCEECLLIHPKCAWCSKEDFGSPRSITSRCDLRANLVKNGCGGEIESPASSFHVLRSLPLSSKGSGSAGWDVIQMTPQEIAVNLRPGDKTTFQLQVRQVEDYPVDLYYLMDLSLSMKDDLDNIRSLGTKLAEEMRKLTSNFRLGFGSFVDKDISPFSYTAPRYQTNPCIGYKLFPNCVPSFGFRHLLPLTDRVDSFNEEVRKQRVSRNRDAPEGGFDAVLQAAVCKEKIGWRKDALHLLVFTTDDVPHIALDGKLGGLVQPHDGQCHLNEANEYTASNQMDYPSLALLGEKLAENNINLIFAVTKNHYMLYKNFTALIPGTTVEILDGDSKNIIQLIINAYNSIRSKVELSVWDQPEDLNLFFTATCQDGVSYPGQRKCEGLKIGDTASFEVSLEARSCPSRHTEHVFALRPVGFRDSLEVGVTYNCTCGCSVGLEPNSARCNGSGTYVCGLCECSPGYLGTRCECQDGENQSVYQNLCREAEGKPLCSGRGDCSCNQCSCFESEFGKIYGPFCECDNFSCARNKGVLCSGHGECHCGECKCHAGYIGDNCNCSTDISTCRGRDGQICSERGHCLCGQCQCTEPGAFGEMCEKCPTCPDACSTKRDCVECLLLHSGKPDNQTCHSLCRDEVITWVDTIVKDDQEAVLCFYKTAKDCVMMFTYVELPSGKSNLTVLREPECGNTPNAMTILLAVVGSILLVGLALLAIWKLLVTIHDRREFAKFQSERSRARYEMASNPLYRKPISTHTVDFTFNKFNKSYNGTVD
T4 sequence (P06756 31-889 limits assumed): as the sequence (P06756 31-889 limits assumed) above
T4 sequence (P06756 891-1048 partner limits assumed): as the sequence (P06756 891-1048 partner limits assumed) above
T4 sequence (P26012 43-769): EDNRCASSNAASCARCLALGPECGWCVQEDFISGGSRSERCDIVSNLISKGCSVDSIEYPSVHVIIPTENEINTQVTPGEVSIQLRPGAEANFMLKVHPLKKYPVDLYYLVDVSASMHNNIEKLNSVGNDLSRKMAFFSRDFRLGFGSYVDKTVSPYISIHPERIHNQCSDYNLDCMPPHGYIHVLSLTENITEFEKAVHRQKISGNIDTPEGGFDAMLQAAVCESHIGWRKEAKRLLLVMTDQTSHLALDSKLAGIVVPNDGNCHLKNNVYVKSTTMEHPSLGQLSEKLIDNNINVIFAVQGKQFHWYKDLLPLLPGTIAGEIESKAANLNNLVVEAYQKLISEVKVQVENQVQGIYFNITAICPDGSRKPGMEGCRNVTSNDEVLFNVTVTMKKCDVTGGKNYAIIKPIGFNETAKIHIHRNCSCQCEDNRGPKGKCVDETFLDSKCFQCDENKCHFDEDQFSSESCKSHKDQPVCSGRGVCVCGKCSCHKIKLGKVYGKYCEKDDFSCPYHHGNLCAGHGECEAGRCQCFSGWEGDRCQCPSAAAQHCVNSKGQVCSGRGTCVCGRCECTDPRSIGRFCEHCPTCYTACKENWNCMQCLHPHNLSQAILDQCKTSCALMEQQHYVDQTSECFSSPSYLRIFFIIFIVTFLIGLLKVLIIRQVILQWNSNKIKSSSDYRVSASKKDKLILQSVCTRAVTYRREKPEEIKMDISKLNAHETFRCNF
T3 sequence (P06756 31-889 limits assumed): as the sequence (P06756 31-889 limits assumed) above
T3 sequence (P06756 891-1048 partner limits assumed): as the sequence (P06756 891-1048 partner limits assumed) above
T3 sequence (P05556 21-798): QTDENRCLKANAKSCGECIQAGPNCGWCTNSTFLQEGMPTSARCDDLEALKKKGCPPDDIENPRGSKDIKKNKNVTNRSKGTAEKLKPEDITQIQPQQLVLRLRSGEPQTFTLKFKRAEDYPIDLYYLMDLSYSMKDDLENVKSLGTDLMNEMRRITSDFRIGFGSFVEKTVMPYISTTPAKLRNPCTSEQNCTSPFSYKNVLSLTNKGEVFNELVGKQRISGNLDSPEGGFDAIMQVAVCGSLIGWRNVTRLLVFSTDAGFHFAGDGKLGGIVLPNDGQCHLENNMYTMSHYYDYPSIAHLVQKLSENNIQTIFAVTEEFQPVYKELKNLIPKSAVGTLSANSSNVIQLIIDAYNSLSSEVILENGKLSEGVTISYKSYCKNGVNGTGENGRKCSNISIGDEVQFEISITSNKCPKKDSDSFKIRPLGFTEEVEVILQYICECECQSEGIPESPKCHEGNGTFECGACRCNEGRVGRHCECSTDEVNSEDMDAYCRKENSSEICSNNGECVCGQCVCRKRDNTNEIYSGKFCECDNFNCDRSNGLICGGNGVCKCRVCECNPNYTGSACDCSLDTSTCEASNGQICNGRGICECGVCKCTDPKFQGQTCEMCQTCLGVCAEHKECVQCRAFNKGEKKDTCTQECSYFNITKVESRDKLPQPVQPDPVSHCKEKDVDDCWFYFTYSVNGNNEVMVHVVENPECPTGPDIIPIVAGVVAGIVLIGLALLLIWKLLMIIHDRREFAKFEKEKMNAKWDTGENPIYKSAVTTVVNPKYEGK
T1 sequence (P06756 31-889 limits assumed): as the sequence (P06756 31-889 limits assumed) above
T1 sequence (P06756 891-1048 partner limits assumed): as the sequence (P06756 891-1048 partner limits assumed) above
T1 sequence (P05106 27-788): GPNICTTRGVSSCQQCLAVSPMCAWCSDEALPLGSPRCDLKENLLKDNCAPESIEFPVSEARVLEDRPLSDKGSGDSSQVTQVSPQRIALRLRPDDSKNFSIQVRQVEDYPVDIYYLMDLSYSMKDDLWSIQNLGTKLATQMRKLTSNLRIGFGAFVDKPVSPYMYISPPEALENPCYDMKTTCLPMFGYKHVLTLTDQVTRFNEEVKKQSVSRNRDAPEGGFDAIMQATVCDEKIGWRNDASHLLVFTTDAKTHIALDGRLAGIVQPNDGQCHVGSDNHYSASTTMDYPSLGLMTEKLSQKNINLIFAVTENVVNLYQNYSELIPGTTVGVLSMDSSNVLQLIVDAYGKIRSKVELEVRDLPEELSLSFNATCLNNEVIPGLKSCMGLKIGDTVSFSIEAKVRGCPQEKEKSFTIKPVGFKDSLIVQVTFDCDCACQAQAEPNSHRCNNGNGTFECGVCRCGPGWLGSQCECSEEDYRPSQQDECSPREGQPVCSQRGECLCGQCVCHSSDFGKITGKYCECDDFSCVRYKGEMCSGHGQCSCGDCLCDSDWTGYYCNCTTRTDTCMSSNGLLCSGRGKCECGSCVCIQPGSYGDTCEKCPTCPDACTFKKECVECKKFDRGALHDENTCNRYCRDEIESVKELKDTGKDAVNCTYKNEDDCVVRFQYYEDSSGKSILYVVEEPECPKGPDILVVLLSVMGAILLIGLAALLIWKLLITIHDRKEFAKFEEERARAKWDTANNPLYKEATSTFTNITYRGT

O=C(O)/C=C\C(=O)O.O=C(O)C[C@H](CN1CC[C@@](F)(CCc2ccc3c(n2)NCCC3)C1)c1cccc(O[C@H]2CCOC2)c1 [Example 19, (S)-4-((S)-3-Fluoro-3-(2-(5,6,7,8-tetrahydro-1,8-naphthyridin-2-yl)ethyl)pyrrolidin-1-yl)-3-(3-(((S)-tetrahydrofuran-3-yl)oxy)phenyl)butanoic acid (1:1) maleate salt]
αvβ3 pIC50 (mean affinity, cell Adhesion Assay) (αvβ3): 7.3
αvβ5 pIC50 (mean affinity, cell Adhesion Assay) (αvβ5): 7.5
αvβ1 pIC50 (mean affinity, cell Adhesion Assay) (αvβ1): 6.6
αvβ8 pIC50 (mean affinity, cell Adhesion Assay) (αvβ8): 7.4
αvβ6 pIC50 (mean affinity, cell Adhesion Assay) (αvβ6): 8.2
